Results from patent US11214779B2, “Activatable CRISPR/CAS9 for spatial and temporal control of genome editing” (University of Pittsburgh—Of the Commonwealth System of …, priority 2015, dated 2022).

Tested on: pIRG dual reporter in HEK 293T cells
Assay: Small molecule activation of Cas9-OABK in live cells (DsRed/EGFP dual reporter assay)
Format: cell-based, human
Conditions: for Concentration dependence of EGFP expression (activation of gene editing): varying concentrations (0-500 μM) of phosphine, Cas9-OABK
Protocol: HEK 293T cells were seeded into a 96-well cell culture microplate (Greiner), and incubated overnight in DMEM growth media supplemented with 10% FBS and 1% penicillin/streptomycin at 37° C. in 5% CO2 humidified atmosphere. Before transfection, media was replaced with antibiotics-free DMEM supplemented with or without OABK (0.25 mM). Quadruple transfections were carried out with linear PEI using pMbOABKRS-wtCas9 or pMbOABKRS-Cas9-K866TAG, p4CMVE-U6-PylT (Gautier et al., J Am Chem Soc 132, 4086-4088, 2010), gRNA plasmids (Hemphill et al., J Am Chem Soc 137, 5642-5645, 2015), and pRG dual reporter plasmid ((Hemphill et al., J Am Chem Soc 137, 5642-5645, 2015)) (100 ng of each). After a 24 h incubation, cells were washed with fresh DMEM and incubated for 2 h. For regulating gene editing in live cells, HEK 293T cells were treated with 5 (0.5 mM) or without 5. After overnight incubation, media was replaced with DMEM without phenol red, and cells were imaged on a Zeiss Observer Z1 microscope (10× objective, NA 0.8 plan-apochromat) with EGFP BP470/40; Em: BP525/50) and DsRed BP550/25; Em: BP605/70) filter cubes. Fluorescent cell counting was performed on a Nikon A1 confocal microscope (10× objective) and analyzed using Elements software.
The function of Cas9-OABK in the absence and presence of phosphine derivatives 5 and 6 (see FIG. 14) was investigated using a DsRed/EGFP dual reporter assay (FIG. 15A). […] Once Cas9-OABK is activated by the small molecule phosphine, the complex of functional Cas9 and gRNAs induces excision of the DsRed-terminator cassette, followed by NHEJ repair, and leading to EGFP expression.

SMILES | Effective concentration of phosphine for activation of Cas9-OABK (live HEK 293T cells, concentrations 0-500 μM tested) | Concentration dependence of EGFP expression (activation of gene editing)
NC(=O)c1ccccc1P(c1ccccc1)c1ccccc1 [compound 6, 2-(diphenylphosphino)benzamide] | 25 µM | dose-dependent
O=C(O)c1ccccc1P(c1ccccc1)c1ccccc1 [compound 5, 2-(diphenylphosphino)benzoic acid] |  | dose-dependent
